ChEMBL document CHEMBL1201862, “PubChem BioAssay data set” (2004)
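These data come from cells grown in 96-well plates and exposed to compound for 48 hours at five concentrations. Abbreviation: GI50, concentration required for 50% inhibition of growth.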 Activity calls are given as the source filed them. Rule as the data show it: active = GI50 up to about 1.1 µM and inactive = higher.

Assays:
Assay in all cases: NCI tumour cell line growth inhibition, 48 h
[1] = test system: HCT-15
[2] = test system: SF-295
[3] = test system: UACC-62
[4] = test system: SF-268
[5] = test system: MDA-MB-231
[6] = test system: M14
[7] = test system: KM12
[8] = test system: UACC-257
[9] = test system: RXF 393
[10] = test system: BT-549
[11] = test system: A498
[12] = test system: OVCAR-8
[13] = test system: HT-29
[14] = test system: Hs-578T
[15] = test system: DU-145
[16] = test system: HOP-92
[17] = test system: HCT-116
[18] = test system: HCC 2998
[19] = test system: RPMI-8226
[20] = test system: SF-539
[21] = test system: SK-MEL-28
[22] = test system: SN12C
[23] = test system: Malme-3M
[24] = test system: OVCAR-4
[25] = test system: 786-0
[26] = test system: U-251
[27] = test system: COLO 205
[28] = test system: ACHN
[29] = test system: NCI-H522
[30] = test system: A549
[31] = test system: SNB-75
[32] = test system: OVCAR-5
[33] = test system: NCI-H226
[34] = test system: MDA-N
[35] = test system: EKVX
[36] = test system: MOLT-4
[37] = test system: NCI-H460
[38] = test system: NCI-H23
[39] = test system: HL-60
[40] = test system: CCRF-CEM
[41] = test system: SK-OV-3
[42] = test system: TK-10
[43] = test system: SW-620
[44] = test system: LOX IMVI
[45] = test system: CAKI-1
[46] = test system: HOP-62
[47] = test system: NCI/ADR-RES
[48] = test system: T47D
[49] = test system: MCF7
[50] = test system: MDA-MB-435
[51] = test system: SR
[52] = test system: K562
[53] = test system: SK-MEL-2
[54] = test system: UO-31
[55] = test system: OVCAR-3
[56] = test system: SK-MEL-5
[57] = test system: SNB-19
[58] = test system: PC-3
[59] = test system: IGROV-1

With `N=c1oc2ccc(Cl)cc2cc1C(=O)Nc1ccccc1` the GI50 [1] was over 100 µM, the GI50 [2] was > 100 µM (inactive) and the GI50 [3] was > 100 µM (inactive). For the same molecule, the GI50 [4] was > 76 µM (inactive), the GI50 [5] was 53.8 µM (inactive) and the GI50 [6] was > 100 µM (inactive). The GI50 [7] was 79.4 µM (inactive), the GI50 [8] was > 54.6 µM (inactive) and the GI50 [9] was 26.2 µM (inactive). The GI50 [10] was > 54 µM (inactive), the GI50 [11] was > 100 µM (inactive) and the GI50 [12] was 56.5 µM (inactive). The GI50 [13] was > 100 µM (inactive), the GI50 [14] was 15.4 µM (inactive) and the GI50 [15] was > 100 µM (inactive). The GI50 [16] was 10.5 µM (inactive), the GI50 [17] was > 59 µM (inactive) and the GI50 [18] was 36.3 µM (inactive). For the same molecule, the GI50 [19] was > 100 µM (inactive), the GI50 [20] was > 65.9 µM (inactive) and the GI50 [21] was > 100 µM (inactive). For the same molecule, the GI50 [22] was > 100 µM (inactive), the GI50 [23] was 6.5 µM (inactive) and the GI50 [24] was > 100 µM (inactive). For the same molecule, the GI50 [25] was 10.7 µM (inactive), the GI50 [26] was > 46.1 µM (inactive) and the GI50 [27] was > 100 µM (inactive). The GI50 [28] was 45.8 µM (inactive), the GI50 [29] was 5.11 µM (inactive) and the GI50 [30] was > 100 µM (inactive). For the same molecule, the GI50 [31] was 23.6 µM (inactive), the GI50 [32] was > 100 µM (inactive) and the GI50 [33] was > 100 µM (inactive). For the same molecule, the GI50 [34] was > 100 µM (inactive), the GI50 [35] was > 59 µM (inactive) and the GI50 [36] was > 100 µM (inactive). The GI50 [37] was > 100 µM (inactive), the GI50 [38] was > 48.5 µM (inactive) and the GI50 [39] was > 100 µM (inactive). The GI50 [40] was > 100 µM (inactive), the GI50 [41] was 23.3 µM (inactive) and the GI50 [42] was > 75.2 µM (inactive). The GI50 [43] was > 100 µM (inactive), the GI50 [44] was > 100 µM (inactive) and the GI50 [45] was 11.1 µM (inactive). The GI50 [46] was 21.6 µM (inactive), the GI50 [47] was 17.3 µM (inactive) and the GI50 [48] was 17.3 µM (inactive). The GI50 [49] was 19.6 µM (inactive), the GI50 [50] was > 100 µM (inactive) and the GI50 [51] was > 100 µM (inactive). For the same molecule, the GI50 [52] was 27 µM (inactive), the GI50 [53] was > 100 µM (inactive) and the GI50 [54] was > 47 µM (inactive). For the same molecule, the GI50 [55] was > 100 µM (inactive), the GI50 [56] was > 100 µM (inactive) and the GI50 [57] was > 62.5 µM (inactive). The GI50 [58] was > 100 µM (inactive) and the GI50 [59] was 26.1 µM (inactive).

For `COc1cc2c3c(cc(Cl)nc3c1OC)C(O)(CC(=O)c1ccccc1)C(=O)N2` (configuration not stated), the GI50 [1] was 21.5 µM, the GI50 [2] was 17.9 µM (inactive) and the GI50 [3] was 6.18 µM (inactive). The GI50 [4] was 4.94 µM (inactive), the GI50 [5] was 13.8 µM (inactive) and the GI50 [6] was 16.4 µM (inactive). The GI50 [7] was 17.3 µM (inactive), the GI50 [8] was 8.15 µM (inactive) and the GI50 [9] was 13.4 µM (inactive). For the same molecule, the GI50 [10] was 16.4 µM (inactive), the GI50 [11] was 18.4 µM (inactive) and the GI50 [12] was 14 µM (inactive). The GI50 [13] was 21.7 µM (inactive), the GI50 [14] was 21.7 µM (inactive) and the GI50 [15] was 16.2 µM (inactive). The GI50 [16] was 1.94 µM (inactive), the GI50 [17] was 4.69 µM (inactive) and the GI50 [18] was 18.5 µM (inactive). For the same molecule, the GI50 [19] was 2.55 µM (inactive), the GI50 [20] was 0.995 µM (active) and the GI50 [21] was 16 µM (inactive). For the same molecule, the GI50 [22] was 6.79 µM (inactive), the GI50 [23] was 2.38 µM (inactive) and the GI50 [24] was 2.35 µM (inactive). The GI50 [25] was 8.93 µM (inactive), the GI50 [26] was 17.1 µM (inactive) and the GI50 [27] was 24.3 µM (inactive). For the same molecule, the GI50 [28] was 14.9 µM (inactive), the GI50 [29] was 2.89 µM (inactive) and the GI50 [30] was 18 µM (inactive). The GI50 [31] was 14.8 µM (inactive), the GI50 [32] was 19.1 µM (inactive) and the GI50 [33] was 21.5 µM (inactive). The GI50 [34] was 1.93 µM (inactive), the GI50 [35] was 5.14 µM (inactive) and the GI50 [36] was 1.71 µM (inactive). For the same molecule, the GI50 [37] was 21 µM (inactive), the GI50 [38] was 17 µM (inactive) and the GI50 [39] was 1.49 µM (inactive). For the same molecule, the GI50 [40] was 1.64 µM (inactive), the GI50 [41] was 17.4 µM (inactive) and the GI50 [42] was 18.1 µM (inactive). For the same molecule, the GI50 [43] was 4 µM (inactive), the GI50 [44] was 7.01 µM (inactive) and the GI50 [45] was 17.5 µM (inactive). The GI50 [46] was 19.2 µM (inactive), the GI50 [47] was 24.8 µM (inactive) and the GI50 [48] was 3.56 µM (inactive). For the same molecule, the GI50 [49] was 1.88 µM (inactive), the GI50 [50] was 1.93 µM (inactive) and the GI50 [51] was 4.65 µM (inactive). For the same molecule, the GI50 [52] was 4.79 µM (inactive), the GI50 [53] was 15.1 µM (inactive) and the GI50 [54] was 13.3 µM (inactive). The GI50 [55] was 15.6 µM (inactive), the GI50 [56] was 15.9 µM (inactive) and the GI50 [57] was 17.7 µM (inactive). The GI50 [58] was 15.3 µM (inactive) and the GI50 [59] was 13.2 µM (inactive).

With `CCN(C(=O)N[C@H](C(=O)N[C@@H](C)C(=O)OC)C(C)C)c1ccccc1` the GI50 [1] was 32.4 µM, the GI50 [2] was 70 µM (inactive) and the GI50 [3] was 22.1 µM (inactive). The GI50 [4] was > 100 µM (inactive), the GI50 [5] was > 100 µM (inactive) and the GI50 [6] was 31 µM (inactive). The GI50 [7] was 39.6 µM (inactive), the GI50 [8] was 20 µM (inactive) and the GI50 [9] was 39.5 µM (inactive). The GI50 [10] was 60.4 µM (inactive), the GI50 [11] was 46.3 µM (inactive) and the GI50 [12] was 24.5 µM (inactive). The GI50 [13] was 38.8 µM (inactive), the GI50 [14] was 32.9 µM (inactive) and the GI50 [15] was > 100 µM (inactive). For the same molecule, the GI50 [16] was 24 µM (inactive), the GI50 [17] was 22.5 µM (inactive) and the GI50 [18] was 17.4 µM (inactive). The GI50 [19] was 33.4 µM (inactive), the GI50 [20] was 19.2 µM (inactive) and the GI50 [21] was 33.1 µM (inactive). The GI50 [22] was 33 µM (inactive), the GI50 [23] was 20 µM (inactive) and the GI50 [24] was 65 µM (inactive). For the same molecule, the GI50 [25] was 27.3 µM (inactive), the GI50 [26] was 28.9 µM (inactive) and the GI50 [27] was 20 µM (inactive). For the same molecule, the GI50 [28] was 45.2 µM (inactive), the GI50 [29] was 19 µM (inactive) and the GI50 [30] was > 100 µM (inactive). For the same molecule, the GI50 [31] was 32.1 µM (inactive), the GI50 [32] was > 100 µM (inactive) and the GI50 [33] was > 100 µM (inactive). For the same molecule, the GI50 [34] was 34.2 µM (inactive), the GI50 [35] was > 100 µM (inactive) and the GI50 [36] was 65.2 µM (inactive). For the same molecule, the GI50 [37] was 24 µM (inactive), the GI50 [38] was 64.3 µM (inactive) and the GI50 [39] was 23.4 µM (inactive). For the same molecule, the GI50 [40] was 56 µM (inactive), the GI50 [41] was > 100 µM (inactive) and the GI50 [42] was 35.7 µM (inactive). The GI50 [43] was 39.2 µM (inactive), the GI50 [44] was > 100 µM (inactive) and the GI50 [45] was > 100 µM (inactive). The GI50 [46] was > 100 µM (inactive), the GI50 [47] was > 100 µM (inactive) and the GI50 [48] was 29.8 µM (inactive). The GI50 [49] was 31 µM (inactive), the GI50 [50] was 21.2 µM (inactive) and the GI50 [51] was 31.2 µM (inactive). For the same molecule, the GI50 [52] was 24 µM (inactive), the GI50 [53] was 28.8 µM (inactive) and the GI50 [54] was 43.3 µM (inactive). For the same molecule, the GI50 [55] was 51.2 µM (inactive), the GI50 [56] was 36.8 µM (inactive) and the GI50 [57] was 64.3 µM (inactive). For the same molecule, the GI50 [58] was 39.1 µM (inactive) and the GI50 [59] was 28.1 µM (inactive).
